Laboratory results as given in article PMC6271219, “Antiprotozoal Activity of Achillea ptarmica (Asteraceae) and Its Main Alkamide Constituents” (Molecules, 2014).
≈ marks a conversion by molar mass, not a printed value. Where two headings read alike, the source gives them in different places. Values belong to the compound of their own block, whether it stands above or below them.

Key:
[1] = system: Trypanosoma brucei rhodesiense; test: In vitro antiprotozoal assay against T. brucei rhodesiense (Tbr); type: cell-based; settings: for SI Tbr: ratio of cytotoxic (L6) over antiprotozoal IC50
Description: (§1) All fractions were analyzed by UHPLC/+ESI QTOF MSMS and representative samples chosen for re-evaluation of their antiprotozoal activity. At this stage, each of the chosen fractions was tested for percent growth inhibitory activity at two concentrations (see Table 2).
(§2) The assays and the IC50 determinations were performed essentially as described previously.

[2] = system: Plasmodium falciparum NF54 strain; test: In vitro antiplasmodial assay, P. falciparum NF54 strain; type: cell-based; settings: for IC50: Plasmodium falciparum; for SI Pf: ratio of cytotoxic (L6) over antiprotozoal IC50, Pf NF54 strain
Description: as §1, §2

K1 strain of Pf [3] = system: K1 strain of Pf; parameters: method as in PMID 15234750; settings: cited from earlier work
Leishmania donovani = test: In vitro antiprotozoal assay against Leishmania donovani (Ldo); type: cell-based
Description: as §1, §2

T. cruzi = test: In vitro antiprotozoal assay against T. cruzi (Tcr); type: cell-based; settings: Trypanosoma cruzi
Description: as §1, §2

[4] = system: rat skeletal myoblasts (L6 cell line); test: Cytotoxicity against rat skeletal myoblasts (L6 cell line); type: cell-based
Description: as §2

K1 strain of Pf [5] = system: K1 strain of Pf; parameters: method as in PMID 2236290; settings: cited from earlier work
[6] = system: Plasmodium falciparum K1 strain; test: In vitro antiplasmodial assay, P. falciparum K1 strain; type: cell-based; settings: K1, read-out: IC50 Pf (value in brackets)
Description: Tests for antiprotozoal activities were carried out using established standard protocols at the Swiss Tropical and Public Health Institute (Swiss TPH, Basel, Switzerland). The assays and the IC50 determinations were performed essentially as described previously.

[7] = Trypanosoma brucei, RHODESIENSE, in vitro, means of two independent determinations ± deviation from mean, read-out: IC50 Tbr
[8] = Trypanosoma brucei, RHODESIENSE, in vitro, pure compounds, read-out: IC50 Tbr (value in brackets) (converted)
[9] = NF54, NF54 strain, pure compounds, read-out: IC50 Pf (value in brackets) (converted)
[10] = compared with A. ptarmica crude extract
[11] = in vitro, means of two independent determinations ± deviation from mean, read-out: IC50 Ldo
[12] = in vitro, pure compounds, read-out: IC50 Ldo (value in brackets) (converted)
[13] = in vitro, means of two independent determinations ± deviation from mean, read-out: IC50 Tcr
[14] = in vitro, pure compounds, read-out: IC50 Tcr (value in brackets) (converted)
[15] = cytotoxicity, L6 cell line, means of two independent determinations ± deviation from mean, read-out: IC50 Tox. L6
[16] = cytotoxicity, L6 cell line, pure compounds, read-out: IC50 Tox. L6 (value in brackets) (converted)
[17] = NF54, read-out: IC50 Pf (value in brackets)
[18] = L6, read-out: IC50 Tox. L6 (value in brackets)

IC50 [1, 7]: 5.35 ± 0.54 µg/mL
IC50 [1, 8]: 24 µM
IC50 Pf ([2]; NF54 strain, means of two independent determinations ± deviation from mean): 3.3 µg/mL (≈ 14.8 µM)
IC50 ([2]; NF54, NF54 strain, means of two independent determinations ± deviation from mean, read-out: IC50 Pf): 3.26 µg/mL
IC50 [2, 9]: 14.6 µM
IC50 (Leishmania donovani; [11]): 5.96 ± 0.16 µg/mL
IC50 (Leishmania donovani; [12]): 26.7 µM
IC50 (T. cruzi; [13]): 8.45 ± 1.08 µg/mL
IC50 (T. cruzi; [14]): 37.9 µM
SMILES: CCCCC/C=C/C=C/C(=O)NCC(C)C [Pellitorine (1), (E,E)-2,4-decadienoic acid isobutylamide]
SI Tbr [1]: 8.41
Antiplasmodial activity, fold higher than that of the crude extract [2, 10]: about 2 fold
SI Pf [2]: 13.85
Concentration up to which reported inactive against Pf (K1 strain of Pf [3]): > 20 µg/mL
IC50 [4, 15]: 45.5 ± 9.1 µg/mL
IC50 [4, 16]: 202 µM

SMILES: CCCCCC=CC=CC(=O)NCC(C)C [N-isobutyldeca-2,4-diene]
IC50 against Pf (K1 strain of Pf [5]): 5.4 µg/mL (≈ 24.2 µM)

SMILES: C/C=C\CC/C=C/C=C/C(=O)NCC(C)C [8,9-Z-Dehydropellitorine (2), (E,E,Z)-2,4,8-decatrienoic acid isobutylamide]
IC50 [1, 7]: 2 ± 0.06 µg/mL
IC50 [1, 8]: 9 µM
Anti-Tbr activity, fold lower in comparison with the crude extract [1, 10]: 3 fold
Selectivity index (Tbr), fold lower than that of the total extract ([1]; compared with A. ptarmica total extract): about 5 fold
IC50 ([1]; in vitro, pure compounds, read-out: IC50 Tbr (value in brackets) (converted)): 9.1 µM
SI Tbr [1]: 8.25
IC50 [2, 9]: 29.3 µM
SI Pf [2]: 2.55
IC50 (Leishmania donovani; [11]): 5.01 ± 0.12 µg/mL
IC50 (Leishmania donovani; [12]): 22.7 µM
IC50 (T. cruzi; [13]): 14.2 ± 2.5 µg/mL
IC50 (T. cruzi; [14]): 64.3 µM
IC50 [4, 15]: 16.5 ± 0.2 µg/mL
IC50 [4, 16]: 74.7 µM

SMILES: CCCC#CC#CCC/C=C/C=C/C(=O)NCC(C)C [Anacycline (6), (E,E)-2,4-tetradecadien-8,10-diynoic acid isobutylamide]
IC50 [1, 7]: 5.12 ± 0.95 µg/mL
IC50 [1, 8]: 18.9 µM
SI Tbr [1]: 9.5
IC50 ([2]; NF54, read-out: IC50 Pf): 7.23 ± 0.4 µg/mL
IC50 [2, 17]: 26.7 µM
SI Pf [2]: 6.74
IC50 (Leishmania donovani; read-out: IC50 Ldo): > 100 µg/mL
IC50 (Leishmania donovani; read-out: IC50 Ldo (value in brackets)): > 369 µM
IC50 (T. cruzi; read-out: IC50 Tcr): 42 ± 4.5 µg/mL
IC50 (T. cruzi; read-out: IC50 Tcr (value in brackets)): 155 µM
IC50 ([4]; L6, read-out: IC50 Tox. L6): 48.7 ± 1.1 µg/mL
IC50 [4, 18]: 18 µM

SMILES: O=C(Cn1ccnc1[N+](=O)[O-])NCc1ccccc1 [Benznidazole, reference compound]
IC50 (T. cruzi; [13]): 0.439 ± 0.094 µg/mL
IC50 (T. cruzi; [14]): 1.69 µM

IC50 [2, 17]: 0.009 µM
IC50 [6]: 0.25 µM
SMILES: CCN(CC)CCCC(C)Nc1ccnc2cc(Cl)ccc12 (centres unmarked) [Chloroquine, reference compound]

SMILES: COc1cc([C@@H]2c3cc4c(cc3[C@H](O)[C@H]3COC(=O)[C@H]23)OCO4)cc(OC)c1OC [Podophyllotoxin, reference compound]
IC50 ([4]; L6, read-out: IC50 Tox. L6): 0.008 ± 0.001 µg/mL
IC50 [4, 18]: 0.019 µM

SMILES: Nc1nc(N)nc(Nc2ccc([As]3SCC(CO)S3)cc2)n1 (centres unmarked) [Melarsoprol, reference compound]
IC50 ([1]; Trypanosoma brucei, RHODESIENSE, read-out: IC50 Tbr): 0.003 ± 0.001 µg/mL
IC50 ([1]; Trypanosoma brucei, RHODESIENSE, read-out: IC50 Tbr (value in brackets)): 0.008 µM
